# Values of other authors as cited in patent US20020077465A1, “ADAM polynucleotides, polypeptides, and antibodies” (priority 2000, published 2002).
# Where a SMILES comes first, the peptide text is derived from it. [ ]: non-standard residue; d: D form. The star is where a group is joined. 4Abz = Nc1ccc(C(=O)O)cc1; NHOH = ON*
# T1: MMP-1 (Homo sapiens, UniProt P03956)
# T1 sequence (P03956 100-469): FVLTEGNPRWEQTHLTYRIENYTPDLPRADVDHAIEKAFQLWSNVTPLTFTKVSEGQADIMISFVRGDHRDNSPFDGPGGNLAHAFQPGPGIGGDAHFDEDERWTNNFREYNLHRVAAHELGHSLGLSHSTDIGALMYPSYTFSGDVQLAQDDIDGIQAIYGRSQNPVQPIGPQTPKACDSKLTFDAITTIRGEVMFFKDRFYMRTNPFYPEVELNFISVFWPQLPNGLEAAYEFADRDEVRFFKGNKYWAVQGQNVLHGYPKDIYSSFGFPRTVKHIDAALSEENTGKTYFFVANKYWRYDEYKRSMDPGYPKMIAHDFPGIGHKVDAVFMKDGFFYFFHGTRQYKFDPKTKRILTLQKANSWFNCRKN
# B1: METH1 polypeptides: metalloprotease thrombospondin polypeptides encoded by the human METH1 gene (WO99/37660) (protein, UniProt Q9UHI8 253-967, looked up)
# A disintegrin and …: FVSSHRYVETMLVADQSMAEFHGSGLKHYLLTLFSVAARLYKHPSIRNSVSLVVVKILVIHDEQKGPEVTSNAALTLRNFCNWQKQHNPPSDRDAEHYDTAILFTRQDLCGSQTCDTLGMADVGTVCDPSRSCSVIEDDGLQAAFTTAHELGHVFNMPHDDAKQCASLNGVNQDSHMMASMLSNLDHSQPWSPCSAYMITSFLDNGHGECLMDKPQNPIQLPGDLPGTSYDANRQCQFTFGEDSKHCPDAASTCSTLWCTGTSGGVLVCQTKHFPWADGTSCGEGKWCINGKCVNKTDRKHFDTPFHGSWGMWGPWGDCSRTCGGGVQYTMRECDNPVPKNGGKYCEGKRVRYRSCNLEDCPDNNGKTFREEQCEAHNEFSKASFGSGPAVEWIPKYAGVSPKDRCKLICQAKGIGYFFVLQPKVVDGTPCSPDSTSVCVQGQCVKAGCDRIIDSKKKFDKCGVCGGNGSTCKKISGSVTSAKPGYHDIITIPTGATNIEVKQRNQRGSRNNGSFLAIKAADGTYILNGDYTLSTLEQDIMYKGVVLRYSGSSAALERIRSFSPLKEPLTIQVLTVGNALRPKIKYTYFVKKKKESFNAIPTFSAWVIEEWGECSKSCELGWQRRLVECRDINGQPASECAKEVKPASTRPCADHPCPQWQLGEWSSCSKTCGKGYKKRSLKCLSHDGGVLSHESCDPLKKPKHFIDFCTMAECS
# Legend:
# [1] = system: protease inhibitor-resistant viruses
# [2] = system: HIV
# [3] = system: AZT/3TC-resistant virus
# [4] = system: viruses containing the K103N mutation
# [5] = molecular target: T1, MMP-1; conditions: read-out: IC50 against MMP-1
# [6] = molecular target: MMP-3 (Homo sapiens, UniProt P08254); conditions: read-out: IC50 against MMP-3
# [7] = molecular target: MMP-8 (Homo sapiens, UniProt P22894); conditions: read-out: IC50 against MMP-8
# [8] = molecular target: MMP-9 (Homo sapiens, UniProt P14780); conditions: read-out: IC50 against MMP-9
# [9] = system: lamivudine-resistant isolates; conditions: a substantial proportion of lamivudine-resistant isolates
# [10] = system: human metastatic melanoma (M24 cells)
# [11] = system: M24 cells; conditions: murine metastasis model
# [12] = system: angiogenesis; conditions: both in vitro and in vivo
# MMP-8, sequence (P22894 101-467, species assumed): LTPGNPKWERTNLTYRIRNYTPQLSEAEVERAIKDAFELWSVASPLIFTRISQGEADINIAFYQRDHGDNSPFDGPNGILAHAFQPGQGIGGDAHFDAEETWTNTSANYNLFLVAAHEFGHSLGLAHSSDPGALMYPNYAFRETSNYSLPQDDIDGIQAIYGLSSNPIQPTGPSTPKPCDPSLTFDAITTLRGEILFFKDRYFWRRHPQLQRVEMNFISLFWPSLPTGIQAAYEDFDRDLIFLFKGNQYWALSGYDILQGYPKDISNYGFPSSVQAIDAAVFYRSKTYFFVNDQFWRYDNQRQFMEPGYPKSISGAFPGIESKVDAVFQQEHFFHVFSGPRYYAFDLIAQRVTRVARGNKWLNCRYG
# MMP-3, sequence (P08254 100-477, species assumed): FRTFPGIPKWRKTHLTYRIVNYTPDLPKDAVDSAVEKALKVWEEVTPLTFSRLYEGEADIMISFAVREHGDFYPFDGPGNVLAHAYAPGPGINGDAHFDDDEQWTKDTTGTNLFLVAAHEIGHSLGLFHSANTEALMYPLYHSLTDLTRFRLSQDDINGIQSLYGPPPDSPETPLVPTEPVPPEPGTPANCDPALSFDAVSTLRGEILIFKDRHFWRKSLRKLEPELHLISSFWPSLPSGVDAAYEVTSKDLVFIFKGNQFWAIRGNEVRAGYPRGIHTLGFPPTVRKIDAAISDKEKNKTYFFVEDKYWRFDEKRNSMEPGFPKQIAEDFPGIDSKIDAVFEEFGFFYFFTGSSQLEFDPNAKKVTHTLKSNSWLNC
# MMP-9, sequence (P14780 94-707, species assumed): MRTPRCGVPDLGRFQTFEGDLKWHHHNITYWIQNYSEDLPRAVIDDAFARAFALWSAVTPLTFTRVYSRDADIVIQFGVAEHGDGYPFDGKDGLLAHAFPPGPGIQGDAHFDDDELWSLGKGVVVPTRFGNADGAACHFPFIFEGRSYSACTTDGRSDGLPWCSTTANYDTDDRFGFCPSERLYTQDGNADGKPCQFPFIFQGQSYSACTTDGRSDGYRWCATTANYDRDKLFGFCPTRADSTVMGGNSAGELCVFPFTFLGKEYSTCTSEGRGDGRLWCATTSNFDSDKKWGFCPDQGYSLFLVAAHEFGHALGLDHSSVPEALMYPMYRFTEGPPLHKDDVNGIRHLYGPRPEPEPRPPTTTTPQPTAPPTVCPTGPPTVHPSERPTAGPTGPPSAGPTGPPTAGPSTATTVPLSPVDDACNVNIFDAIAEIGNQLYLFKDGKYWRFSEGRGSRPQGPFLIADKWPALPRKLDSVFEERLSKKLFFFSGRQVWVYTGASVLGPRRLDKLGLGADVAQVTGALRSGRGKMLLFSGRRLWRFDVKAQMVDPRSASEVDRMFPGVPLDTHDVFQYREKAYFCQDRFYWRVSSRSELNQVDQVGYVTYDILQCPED
molecule,measurement,setting,value
Cc1ccccc1CNC(=O)[C@H]1N(C(=O)[C@@H](O)[C@H](Cc2ccccc2)NC(=O)c2cccc(O)c2C)CSC1(C)C [AG-1776],in vitro activity against protease inhibitor-resistant viruses,[1],in vitro activity
"Nc1nc(=O)n([C@@H]2CS[C@H](CO)O2)cc1F [COVIRACIL, emtricitabine]",greater activity in vitro than lamivudine (3TC),"[2]; in vitro, relative to lamivudine (3TC)",3- to 10 fold
Nc1nc(=O)n([C@H]2C=C[C@@H](CO)O2)cc1F [D-D4FC],activity against AZT/3TC-resistant virus,[3],activity against AZT/3TC-resistant virus
CC[C@H]1C(=O)Nc2ccc(F)cc2N1C(=O)OC(C)C [GW-420867X],activity against viruses containing the K103N mutation / K103N mutants,[4],active against K103N mutants
same,greater activity than HBY097,[2]; relative to HBY097,25 fold
CC(C)C[C@@H](NC(=O)[C@@H]1CCCN1C(=O)CNC(=O)c1ccc(N)cc1)C(=O)N[C@H](C)C(=O)NO [MMP inhibitor I] (H-[4Abz]GP[dL][dA]-{NHOH}),IC50,[5],1 µM
same,IC50,[6],150 µM
same,IC50,[7],1 µM
same,IC50,[8],30 µM
C[C@H](Sc1nc(N)cc(Cl)n1)c1cc2ccoc2cn1 [PNU-142721],activity against viruses containing the K103N mutation / K103N mutants,[4],active against K103N mutants
same,greater activity than its predecessor delavirdine,[2]; relative to delavirdine,20- to 50 fold
Nc1ccn([C@H]2CO[C@@H](CO)S2)c(=O)n1 [dOTC],activity against lamivudine-resistant isolates,[9],retains activity
contortrostatin,inhibition of M24 cell adhesion to laminin,[10]; laminin,not
same,"inhibition of M24 cell adhesion to type I collagen, vitronectin, and fibronectin","[10]; type I collagen, vitronectin, fibronectin",inhibit
same,inhibition of lung colonization of M24 cells,[11],inhibits
B1,inhibition of angiogenesis,[12],potent inhibitors
